Laboratory results: the supplement of paper PMC11061612

Legend:
AZD1390 = compound: CC(C)n1c(=O)n(C)c2cnc3cc(F)c(-c4ccc(OCCCN5CCCCC5)nc4)cc3c21 [AZD1390]; details: max 0.3 µM
How it was run: (§1)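 Plates with 1536 wells received cancer cell lines in 7.5 μl of DMEM/F12 or RPMI containing 10% FBS. After 24 hours at 37°C and 5% CO2, cells were dosed for 72 hours with final DMSO typically 0.2%, and viability was read by CellTiter-Glo 2.0 luminescence scaled between blank-well and DMSO-well means. The single-agent IC50 was taken from a logistic fit of the dose responses made with a non-linear mixed effects model, that logistic curve having two parameters.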

Palbociclib = compound: CC(=O)c1c(C)c2cnc(Nc3ccc(N4CCNCC4)cn3)nc2n(C2CCCC2)c1=O [Palbociclib]; details: max 10 µM
How it was run: as §1

Dasatinib = compound: CC1=C(C(=CC=C1)Cl)NC(=O)C2=CN=C(S2)NC3=CC(=NC(=N3)C)N4CCN(CC4)CCO [Dasatinib]; details: max 2 µM
How it was run: as §1

Lapatinib = compound: CS(=O)(=O)CCNCc1ccc(-c2ccc3ncnc(Nc4ccc(OCc5cccc(F)c5)c(Cl)c4)c3c2)o1 [Lapatinib]; details: max 10 µM
How it was run: as §1

Prexasertib = compound: COc1cccc(OCCCN)c1-c1cc(Nc2cnc(C#N)cn2)n[nH]1 [Prexasertib]; details: max 1 µM
How it was run: as §1

Capivasertib = compound: C1CN(CCC1(C(=O)N[C@@H](CCO)C2=CC=C(C=C2)Cl)N)C3=NC=NC4=C3C=CN4 [Capivasertib]; details: max 10 µM
How it was run: as §1

AZD0156 = compound: CN(C)CCCOc1ccc(-c2ccc3ncc4c(c3c2)n(C2CCOCC2)c(=O)n4C)cn1 [AZD0156]; details: max 3 µM
How it was run: as §1

Doxorubicin = compound: COc1cccc2c1C(=O)c1c(O)c3c(c(O)c1C2=O)C[C@@](O)(C(=O)CO)C[C@@H]3O[C@H]1C[C@H](N)[C@H](O)[C@H](C)O1 [Doxorubicin]; details: max 1 µM
How it was run: as §1

Savolitinib = compound: C[C@@H](c1ccc2nccn2c1)n1nnc2ncc(-c3cnn(C)c3)nc21 [Savolitinib]; details: max 1 µM
How it was run: as §1

SN-38 = compound: CCc1c2c(nc3ccc(O)cc13)-c1cc3c(c(=O)n1C2)COC(=O)[C@]3(O)CC [SN-38]; details: max 0.3 µM
How it was run: as §1

Taselisib = compound: Cc1nc(-c2cn3c(n2)-c2ccc(-c4cnn(C(C)(C)C(N)=O)c4)cc2OCC3)n(C(C)C)n1 [Taselisib]; details: max 10 µM
How it was run: as §1

AZD4320 = compound: CN(CC[C@H](CSC1=CC=CC=C1)NC2=C(C=C(C=C2)S(=O)(=O)NC(=O)C3=CC=C(C=C3)N4CCC(CC4)[C@H](C5=CC=CC=C5C6=CC=C(C=C6)Cl)O)S(=O)(=O)C(F)(F)F)CCO [AZD4320]; details: max 1 µM
How it was run: as §1

Trametinib = compound: CC(=O)Nc1cccc(-n2c(=O)n(C3CC3)c(=O)c3c(Nc4ccc(I)cc4F)n(C)c(=O)c(C)c32)c1 [Trametinib]; details: max 1 µM
How it was run: as §1

AZD8186 = compound: C[C@@H](Nc1cc(F)cc(F)c1)c1cc(C(=O)N(C)C)cc2c(=O)cc(N3CCOCC3)oc12 [AZD8186]
How it was run: as §1

AZD1775 = compound: C=CCn1c(=O)c2cnc(Nc3ccc(N4CCN(C)CC4)cc3)nc2n1-c1cccc(C(C)(C)O)n1 [AZD1775]; details: max 3 µM
How it was run: as §1

Gefitinib = compound: COc1cc2ncnc(Nc3ccc(F)c(Cl)c3)c2cc1OCCCN1CCOCC1 [Gefitinib]; details: max 10 µM
How it was run: as §1

Olaparib = compound: O=C(c1cc(Cc2n[nH]c(=O)c3ccccc23)ccc1F)N1CCN(C(=O)C2CC2)CC1 [Olaparib]; details: max 10 µM
How it was run: as §1

AZD5153 = compound: COc1nnc2ccc(N3CCC(c4ccc(OCCN5CCN(C)C(=O)[C@H]5C)cc4)CC3)nn12 [AZD5153]; details: max 1 µM
How it was run: as §1

Crizotinib = compound: C[C@@H](Oc1cc(-c2cnn(C3CCNCC3)c2)cnc1N)c1c(Cl)ccc(F)c1Cl [Crizotinib]; details: max 10 µM
How it was run: as §1

AZD6738 = compound: C[C@@H]1COCCN1C2=NC(=NC(=C2)C3(CC3)[S@](=N)(=O)C)C4=C5C=CNC5=NC=C4 [AZD6738]; details: max 10 µM
How it was run: as §1

Selumetinib = compound: Cn1cnc2c(F)c(Nc3ccc(Br)cc3Cl)c(C(=O)NOCCO)cc21 [Selumetinib]; details: max 10 µM
How it was run: as §1

Alisertib = compound: COc1cc(Nc2ncc3c(n2)-c2ccc(Cl)cc2C(c2c(F)cccc2OC)=NC3)ccc1C(=O)O [Alisertib]; details: max 10 µM
How it was run: as §1

AZD2811 = compound: CCN(CCO)CCCOc1ccc2c(Nc3cc(CC(=O)Nc4cccc(F)c4)[nH]n3)ncnc2c1 [AZD2811]; details: max 1 µM
How it was run: as §1

AZD7648 = compound: Cc1cc2ncnn2cc1Nc1ncc2c(n1)n(C1CCOCC1)c(=O)n2C [AZD7648]; details: max 10 µM
How it was run: as §1

AZD5991 = compound: Cc1c2c(nn1C)CSCc1cc(n(C)n1)CSc1cc(c3ccccc3c1)OCCCc1c(C(=O)O)n(C)c3c-2c(Cl)ccc13 [AZD5991]; details: max 1 µM
How it was run: as §1

Venetoclax = compound: CC1(C)CCC(CN2CCN(c3ccc(C(=O)NS(=O)(=O)c4ccc(NCC5CCOCC5)c([N+](=O)[O-])c4)c(Oc4cnc5[nH]ccc5c4)c3)CC2)=C(c2ccc(Cl)cc2)C1 [Venetoclax]; details: max 1 µM
How it was run: as §1

SG3199 = compound: CC1=CN2[C@@H](C1)C=NC3=CC(=C(C=C3C2=O)OC)OCCCCCOC4=C(C=C5C(=C4)N=C[C@@H]6CC(=CN6C5=O)C)OC [SG3199]; details: max 0.001 µM
How it was run: as §1

Paclitaxel = compound: CC(=O)O[C@H]1C(=O)[C@@]2(C)[C@H]([C@H](OC(=O)c3ccccc3)[C@]3(O)C[C@H](OC(=O)[C@H](O)[C@@H](NC(=O)c4ccccc4)c4ccccc4)C(C)=C1C3(C)C)[C@]1(OC(C)=O)CO[C@@H]1C[C@@H]2O [Paclitaxel]; details: max 3 µM
How it was run: as §1

AZD5363 = compound: C1CN(CCC1(C(=O)N[C@@H](CCO)C2=CC=C(C=C2)Cl)N)C3=NC=NC4=C3C=CN4 [AZD5363]; details: max 10 µM
How it was run: as §1

[1] = compound: O=C(Nc1ccc2[nH]nc(-c3ccncc3)c2c1)[C@@H]1CCN(CC(=O)N2CCN(c3ccc(-c4ncccn4)cc3)CC2)C1; details: max 5 µM
How it was run: as §1

MK-2206 = compound: NC1(c2ccc(-c3nc4ccn5c(=O)[nH]nc5c4cc3-c3ccccc3)cc2)CCC1 [MK-2206]; details: max 10 µM
How it was run: as §1

Gemcitabine = compound: Nc1ccn([C@@H]2O[C@H](CO)[C@@H](O)C2(F)F)c(=O)n1 [Gemcitabine]; details: max 0.3 µM
How it was run: as §1

Etoposide = compound: COc1cc([C@@H]2c3cc4c(cc3[C@@H](O[C@@H]3O[C@@H]5CO[C@@H](C)O[C@H]5[C@H](O)[C@H]3O)[C@H]3COC(=O)[C@H]23)OCO4)cc(OC)c1O [Etoposide]; details: max 10 µM
How it was run: as §1

Carboplatin = compound: C1CC(C1)(C(=O)[O-])C(=O)[O-].N.N.[Pt+2] [Carboplatin]; details: max 10 µM
How it was run: as §1

5-Fluorouracil = compound: O=c1[nH]cc(F)c(=O)[nH]1 [5-Fluorouracil]; details: max 20 µM
How it was run: as §1

SRA737 = compound: N#Cc1cnc(Nc2cc(NC[C@H]3CNCCO3)c(C(F)(F)F)cn2)cn1 [SRA737]; details: max 10 µM
How it was run: as §1

Row | Cell Line | IC50, cell viability 72 h (AZD1390) | IC50, cell viability 72 h (Palbociclib) | IC50, cell viability 72 h (Dasatinib) | IC50, cell viability 72 h (Lapatinib) | IC50, cell viability 72 h (Prexasertib) | IC50, cell viability 72 h (Capivasertib) | IC50, cell viability 72 h (AZD0156) | IC50, cell viability 72 h (Doxorubicin) | IC50, cell viability 72 h (Savolitinib) | IC50, cell viability 72 h (SN-38) | IC50, cell viability 72 h (Taselisib) | IC50, cell viability 72 h (AZD4320) | IC50, cell viability 72 h (Trametinib) | IC50, cell viability 72 h (AZD8186; max 3 µM) | IC50, cell viability 72 h (AZD1775) | IC50, cell viability 72 h (Gefitinib) | IC50, cell viability 72 h (Olaparib) | IC50, cell viability 72 h (AZD5153) | IC50, cell viability 72 h (Crizotinib) | IC50, cell viability 72 h (AZD6738) | IC50, cell viability 72 h (Selumetinib) | IC50, cell viability 72 h (Alisertib) | IC50, cell viability 72 h (AZD2811) | IC50, cell viability 72 h (AZD7648) | IC50, cell viability 72 h (AZD5991) | IC50, cell viability 72 h (Venetoclax) | IC50, cell viability 72 h (SG3199) | IC50, cell viability 72 h (Paclitaxel) | IC50, cell viability 72 h (AZD5363) | IC50, cell viability 72 h [1] | IC50, cell viability 72 h (MK-2206) | IC50, cell viability 72 h (Gemcitabine) | IC50, cell viability 72 h (Etoposide) | IC50, cell viability 72 h (Carboplatin) | IC50, cell viability 72 h (AZD8186; max 10 µM) | IC50, cell viability 72 h (5-Fluorouracil) | IC50, cell viability 72 h (SRA737)
1 | GDM-1 (Acute Myeloid Leukemia) | > 300 nM | 8.09 µM | 9.37 nM | > 10 µM | 40.2 nM | 8.68 µM | > 3000 nM | 326 nM | > 1000 nM | 4.15 nM | 0.121 µM | 83.4 nM | > 1000 nM | 1940 nM | 435 nM | > 10 µM | > 10 µM | 64.8 nM | 1.16 µM | 7.15 µM | > 10 µM | 123 nM | 65.6 nM | 5.19 µM | > 1000 nM | 392 nM | > 1 nM | – | – | – | – | – | – | – | – | – | –
2 | HCC-827 (Lung Adenocarcinoma) | > 300 nM | > 10 µM | 130 nM | 3 µM | 465 nM | > 10 µM | > 3000 nM | > 1000 nM | > 1000 nM | > 300 nM | 8.54 µM | > 1000 nM | > 1000 nM | > 3000 nM | > 3000 nM | 0.0842 µM | > 10 µM | > 1000 nM | > 10 µM | > 10 µM | > 10 µM | > 10000 nM | > 1000 nM | > 10 µM | > 1000 nM | > 1000 nM | > 1 nM | – | – | – | – | – | – | – | – | – | –
3 | SNG-M (Endometrial Carcinoma) | > 300 nM | > 10 µM | 259 nM | > 10 µM | 23.1 nM | – | > 3000 nM | > 1000 nM | > 1000 nM | 153 nM | 3.82 µM | > 1000 nM | > 1000 nM | – | 874 nM | > 10 µM | > 10 µM | > 1000 nM | > 10 µM | 1.31 µM | > 10 µM | 2440 nM | > 1000 nM | > 10 µM | > 1000 nM | > 1000 nM | > 1 nM | 6.87 nM | > 10 µM | > 5 µM | > 10 µM | 33 nM | > 10 µM | > 10 µM | > 10000 nM | > 20 µM | 5.19 µM
